Assay results taken from US20250082674A1, “METHODS OF TREATING COPPER METABOLISM-ASSOCIATED DISEASES OR DISORDERS” (priority 2021, published 2025).
Like-named read-outs stand apart in the source and are kept apart here.

How the values were obtained:
[1] = tested on: copper; settings: Study 201, BC-TTM monotherapy, Week 24
[2] = Text: Adverse events were reported by the patient (or, when appropriate, by a caregiver, surrogate, or the patient's legally authorized representative). The Investigator and any qualified designees were responsible for detecting, documenting, and recording events that meet the definition of an AE or SAE and remain responsible for following up AEs that were serious, considered related to the study intervention or study procedures, or that caused the patient to discontinue the study.
Acute worsening of neurologic symptoms typically within 6 months of start of therapy is a known complication associated with chelation therapy for WD. […] Neurologic AESI for Study 301 were considered as all AEs in the Medical Dictionary for Regulatory Activities (MedDRA) System Organ Class (SOC) “Nervous system disorders” or any other AE judged by the Investigator as an AESI.

[3] = Hematological AEs, Primary Evaluation Period, Safety Set, BC-TTM N = 137, SoC N = 70
[4] = Primary Evaluation Period, 48 Weeks, BC-TTM N = 137, SoC N = 70
[5] = Primary Evaluation Period, Safety Set, BC-TTM N = 137, SoC N = 70
[6] = Study 301, Primary Evaluation Period

## Bis-choline tetrathiomolybdate [BC-TTM]
[1]
  reduction of mean serum cNCCcorrected compared with baseline: 72%
[2]; [3]
  Anemia, E events: 7
  Anemia, N participants: 6
  Anemia, participants (%): 4.4%
  Leukopenia, E events: 3
  Leukopenia, N participants: 2
  Leukopenia, participants (%): 1.5%
  Neutropenia, E events: 6
  Neutropenia, N participants: 6
  Neutropenia, participants (%): 4.4%
  Neutrophil count decreased, E events: 4
  Neutrophil count decreased, N participants: 2
  Neutrophil count decreased, participants (%): 1.5%
  Thrombocytopenia, E events: 2
  Thrombocytopenia, N participants: 1
  Thrombocytopenia, participants (%): 0.7%
[2]; [4]
  Alanine aminotransferase increased, N participants: 20
  Alanine aminotransferase increased, participants (%): 14.6%
  Aspartate aminotransferase increased, N participants: 4
  Aspartate aminotransferase increased, participants (%): 2.9%
  Ear and labyrinth disorders, N participants: 7
  Ear and labyrinth disorders, participants (%): 5.1%
  Fatigue, N participants: 13
  Fatigue, participants (%): 9.5%
  Gamma-glutamyltransferase increased, N participants: 3
  Gamma-glutamyltransferase increased, participants (%): 2.2%
  Hepatic enzyme increased, N participants: 3
  Hepatic enzyme increased, participants (%): 2.2%
  Hepatobiliary disorders, N participants: 9
  Hepatobiliary disorders, participants (%): 6.6%
  Investigations, N participants: 46
  Investigations, participants (%): 33.6%
  Nervous system disorders, N participants: 47
  Nervous system disorders, participants (%): 34.3%
  Neutrophil count decreased, N participants: 2
  Neutrophil count decreased, participants (%): 1.5%
  Pruritus, N participants: 5
  Pruritus, participants (%): 3.6%
  Psychiatric disorders, N participants: 26
  Psychiatric disorders, participants (%): 19.0%
  Pyrexia, N participants: 8
  Pyrexia, participants (%): 5.8%
  Rash, N participants: 9
  Rash, participants (%): 6.6%
  Skin and subcutaneous tissue disorders, N participants: 30
  Skin and subcutaneous tissue disorders, participants (%): 21.9%
[2]; [5]
  ALT increased, E events: 25
  ALT increased, N participants: 20
  ALT increased, participants (%): 14.6%
  AST increased, E events: 4
  AST increased, N participants: 4
  AST increased, participants (%): 2.9%
  GGT increased, E events: 3
  GGT increased, N participants: 3
  GGT increased, participants (%): 2.2%
  Hepatic enzyme increased, E events: 5
  Hepatic enzyme increased, N participants: 3
  Hepatic enzyme increased, participants (%): 2.2%
  Hepatic function abnormal, E events: 3
  Hepatic function abnormal, N participants: 3
  Hepatic function abnormal, participants (%): 2.2%
  Hyperbilirubinemia, E events: 1
  Hyperbilirubinemia, N participants: 1
  Hyperbilirubinemia, participants (%): 0.7%
  Hypertransaminasemia, E events: 4
  Hypertransaminasemia, N participants: 2
  Hypertransaminasemia, participants (%): 1.5%
  Jaundice, E events: 1
  Jaundice, N participants: 1
  Jaundice, participants (%): 0.7%
  LFT abnormal, E events: 2
  LFT abnormal, N participants: 2
  LFT abnormal, participants (%): 1.5%
  LFT increased, E events: 4
  LFT increased, N participants: 4
  LFT increased, participants (%): 2.9%
  Liver disorder, E events: 1
  Liver disorder, N participants: 1
  Liver disorder, participants (%): 0.7%
[2]; Study 301
  ALT increased as share of treatment-emergent adverse events (25/577): 4.3%
  incidence of AE ALT increased: 14.6%
  incidence of SAEs, Nervous system disorders: 4.4%
  incidence of hematologic AEs, BC-TTM versus SoC: similar
  participants with Grade 4 AEs, Nervous system disorders: 1 participant
  participants with Grade 5 AEs, Nervous system disorders: 1 participant
  participants with highest severity Grade 1 AEs, Nervous system disorders: 24.1%
  participants with highest severity Grade 2 AEs, Nervous system disorders: 13.9%
  participants with neurologic AESI in the SOC Psychiatric disorders: 3.6%
[2]; [6]
  AEs in SOC Ear and labyrinth disorders: 5.1%
  AEs in SOC Hepatobiliary disorders: 6.6%
  AEs in SOC Investigations: 33.6%
  AEs in SOC Psychiatric disorders: 19.0%
  AEs in SOC Skin and subcutaneous tissue disorders: 21.9%
  incidence of AEs in the SOC Nervous system disorders: 34.3%
  incidence of headache: 8.0%
  incidence of tremor: 7.3%
[2]; clinical program for BC-TTM
  participants discontinued due to AE of anemia (Grade 1): 1 participant
  participants discontinued due to AE of neutropenia (Grade 2): 1 participant
[2]; participants with WD
  overall safety profile: acceptable safety profile and is generally well-tolerated
